Measurements taken from PubChem BioAssay (NCI).
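In this assay, cells in 96-well plates receive the compound at five concentrations for 48 hours. Endpoints are linearly interpolated between the surrounding concentrations. TGI is the concentration that stops growth completely.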

Experiments:
Assay in all cases: NCI tumour cell line growth inhibition, 48 h
NCI-H23 lung = test system: NCI-H23 lung
RPMI-8226 leukemia = test system: RPMI-8226 leukemia
HCT-116 colon = test system: HCT-116 colon
EKVX NSCLC = test system: EKVX NSCLC
SR leukemia = test system: SR leukemia
BT-549 breast = test system: BT-549 breast
KM12 colon = test system: KM12 colon
SF-295 CNS = test system: SF-295 CNS
NCI/ADR-RES ovarian = test system: NCI/ADR-RES ovarian
HT29 colon = test system: HT29 colon
A498 renal = test system: A498 renal
786-0 renal = test system: 786-0 renal
IGROV1 ovarian = test system: IGROV1 ovarian
UACC-62 melanoma = test system: UACC-62 melanoma
ACHN renal = test system: ACHN renal
OVCAR-8 ovarian = test system: OVCAR-8 ovarian
SW-620 colon = test system: SW-620 colon
CAKI-1 renal = test system: CAKI-1 renal
PC-3 prostate = test system: PC-3 prostate
HL-60(TB) leukemia = test system: HL-60(TB) leukemia
OVCAR-4 ovarian = test system: OVCAR-4 ovarian
T-47D breast = test system: T-47D breast
UO-31 renal = test system: UO-31 renal
MDA-N = test system: MDA-N
NCI-H522 lung = test system: NCI-H522 lung
SN12C renal = test system: SN12C renal
MOLT-4 leukemia = test system: MOLT-4 leukemia
SNB-75 CNS = test system: SNB-75 CNS
SK-MEL-5 melanoma = test system: SK-MEL-5 melanoma
LOX IMVI melanoma = test system: LOX IMVI melanoma
COLO 205 colon = test system: COLO 205 colon
HCC-2998 colon = test system: HCC-2998 colon
OVCAR-5 ovarian = test system: OVCAR-5 ovarian
MDA-MB-231 breast = test system: MDA-MB-231 breast
SNB-19 CNS = test system: SNB-19 CNS
MDA-MB-435 = test system: MDA-MB-435
M14 melanoma = test system: M14 melanoma
HCT-15 colon = test system: HCT-15 colon
K-562 leukemia = test system: K-562 leukemia
UACC-257 melanoma = test system: UACC-257 melanoma
RXF 393 renal = test system: RXF 393 renal
SF-539 CNS = test system: SF-539 CNS
HS 578T breast = test system: HS 578T breast
NCI-H226 lung = test system: NCI-H226 lung
MCF7 breast = test system: MCF7 breast
SF-268 CNS = test system: SF-268 CNS
DU-145 prostate = test system: DU-145 prostate
SK-MEL-2 melanoma = test system: SK-MEL-2 melanoma
TK-10 renal = test system: TK-10 renal
NCI-H460 lung = test system: NCI-H460 lung
HOP-62 NSCLC = test system: HOP-62 NSCLC
CCRF-CEM leukemia = test system: CCRF-CEM leukemia
HOP-92 NSCLC = test system: HOP-92 NSCLC
A549 NSCLC = test system: A549 NSCLC
OVCAR-3 ovarian = test system: OVCAR-3 ovarian
MALME-3M melanoma = test system: MALME-3M melanoma
SK-MEL-28 melanoma = test system: SK-MEL-28 melanoma
U251 CNS = test system: U251 CNS
SK-OV-3 ovarian = test system: SK-OV-3 ovarian

Measured: TGI

Cc1cc2nc3ccccc3n2c2nc(N)ccc12
40.2 µM: SK-MEL-5 melanoma
27.5 µM: NCI-H460 lung
51.6 µM: SF-539 CNS
70.2 µM: RPMI-8226 leukemia
80.4 µM: OVCAR-8 ovarian
71.5 µM: SF-295 CNS
> 100 µM: NCI-H23 lung | HCT-116 colon | EKVX NSCLC | SR leukemia | BT-549 breast | KM12 colon | NCI/ADR-RES ovarian | HT29 colon | A498 renal | 786-0 renal | IGROV1 ovarian | UACC-62 melanoma | ACHN renal | SW-620 colon | CAKI-1 renal | PC-3 prostate | HL-60(TB) leukemia | OVCAR-4 ovarian | T-47D breast | UO-31 renal | MDA-N | NCI-H522 lung | SN12C renal | MOLT-4 leukemia | SNB-75 CNS | LOX IMVI melanoma | COLO 205 colon | HCC-2998 colon | OVCAR-5 ovarian | MDA-MB-231 breast | SNB-19 CNS | MDA-MB-435 | M14 melanoma | K-562 leukemia | UACC-257 melanoma | RXF 393 renal | HS 578T breast | MCF7 breast | SF-268 CNS | DU-145 prostate | SK-MEL-2 melanoma | TK-10 renal | HOP-62 NSCLC | CCRF-CEM leukemia | A549 NSCLC | OVCAR-3 ovarian
93.1 µM: HCT-15 colon
84.9 µM: NCI-H226 lung
69 µM: HOP-92 NSCLC

O=C1CCc2ccc(O)c(c2)Oc2ccc(cc2)C(Sc2ccccc2)CCO1 (stereo unspecified)
29.8 µM: HCT-116 colon
35.4 µM: RXF 393 renal
33 µM: U251 CNS
32.9 µM: HCC-2998 colon
76 µM: SR leukemia
26.1 µM: OVCAR-4 ovarian
28.7 µM: BT-549 breast
37.3 µM: OVCAR-8 ovarian | SK-MEL-2 melanoma
31.4 µM: NCI/ADR-RES ovarian | SF-539 CNS
29.6 µM: 786-0 renal | OVCAR-3 ovarian
31.6 µM: SK-MEL-28 melanoma | TK-10 renal
38.2 µM: SF-295 CNS
35.1 µM: PC-3 prostate
32.1 µM: ACHN renal | M14 melanoma
46.6 µM: DU-145 prostate
27.7 µM: NCI-H522 lung
34.9 µM: SW-620 colon
41.1 µM: CAKI-1 renal
59 µM: A549 NSCLC
27.6 µM: IGROV1 ovarian
28.5 µM: EKVX NSCLC
36.2 µM: HS 578T breast
29.5 µM: KM12 colon
33.4 µM: UO-31 renal
43.8 µM: MCF7 breast
30.2 µM: NCI-H226 lung
28.4 µM: SNB-75 CNS
30.9 µM: HOP-62 NSCLC
22.2 µM: HOP-92 NSCLC
54.1 µM: T-47D breast
19.2 µM: MDA-MB-231 breast
42.4 µM: SF-268 CNS
33.1 µM: COLO 205 colon
25.8 µM: LOX IMVI melanoma
27.3 µM: NCI-H23 lung
36.4 µM: RPMI-8226 leukemia
34.8 µM: MDA-N
24.8 µM: SK-MEL-5 melanoma
> 100 µM: HL-60(TB) leukemia | MOLT-4 leukemia | CCRF-CEM leukemia | SK-OV-3 ovarian
31.8 µM: A498 renal
27.9 µM: MALME-3M melanoma
40 µM: K-562 leukemia
30.1 µM: HT29 colon
35.3 µM: OVCAR-5 ovarian
29.7 µM: SN12C renal
32.6 µM: UACC-257 melanoma
29.9 µM: HCT-15 colon
41.9 µM: MDA-MB-435
32.5 µM: UACC-62 melanoma
39.8 µM: SNB-19 CNS

CCC1(c2ccc(N3C(=O)c4cc(OC)c(OC)cc4C3=O)cc2)CCC(=O)NC1=O (stereo unspecified)
> 10 µM: NCI-H23 lung | RPMI-8226 leukemia | HCT-116 colon | EKVX NSCLC | SR leukemia | BT-549 breast | KM12 colon | SF-295 CNS | NCI/ADR-RES ovarian | HT29 colon | A498 renal | 786-0 renal | IGROV1 ovarian | UACC-62 melanoma | ACHN renal | OVCAR-8 ovarian | SW-620 colon | CAKI-1 renal | PC-3 prostate | HL-60(TB) leukemia | OVCAR-4 ovarian | T-47D breast | UO-31 renal | MDA-N | MALME-3M melanoma | SN12C renal | MOLT-4 leukemia | SK-MEL-5 melanoma | SK-MEL-28 melanoma | LOX IMVI melanoma | COLO 205 colon | HCC-2998 colon | OVCAR-5 ovarian | MDA-MB-231 breast | SNB-19 CNS | MDA-MB-435 | M14 melanoma | HCT-15 colon | K-562 leukemia | UACC-257 melanoma | RXF 393 renal | SF-539 CNS | HS 578T breast | NCI-H226 lung | MCF7 breast | SF-268 CNS | DU-145 prostate | SK-MEL-2 melanoma | U251 CNS | TK-10 renal | NCI-H460 lung | HOP-62 NSCLC | CCRF-CEM leukemia | HOP-92 NSCLC | A549 NSCLC | SK-OV-3 ovarian | OVCAR-3 ovarian

CC1(C)CCCC(C)(C2CCC3(C)C2C(O)CC2C4(C)CCC(O)C(C)(C)C4CCC23C)O1 (stereo unspecified)
89.1 µM: HS 578T breast
30.9 µM: RXF 393 renal
> 100 µM: NCI-H23 lung | HCT-116 colon | EKVX NSCLC | SR leukemia | BT-549 breast | KM12 colon | SF-295 CNS | NCI/ADR-RES ovarian | HT29 colon | A498 renal | 786-0 renal | IGROV1 ovarian | UACC-62 melanoma | ACHN renal | OVCAR-8 ovarian | SW-620 colon | CAKI-1 renal | PC-3 prostate | HL-60(TB) leukemia | OVCAR-4 ovarian | T-47D breast | UO-31 renal | MDA-N | MALME-3M melanoma | NCI-H522 lung | SN12C renal | MOLT-4 leukemia | SNB-75 CNS | SK-MEL-5 melanoma | SK-MEL-28 melanoma | LOX IMVI melanoma | COLO 205 colon | HCC-2998 colon | OVCAR-5 ovarian | MDA-MB-231 breast | SNB-19 CNS | MDA-MB-435 | M14 melanoma | HCT-15 colon | K-562 leukemia | UACC-257 melanoma | SF-539 CNS | NCI-H226 lung | MCF7 breast | SF-268 CNS | DU-145 prostate | SK-MEL-2 melanoma | U251 CNS | TK-10 renal | NCI-H460 lung | CCRF-CEM leukemia | HOP-92 NSCLC | A549 NSCLC | SK-OV-3 ovarian
